How the values were obtained:
[1] = target: T1, Amine oxidase [flavin-containing] B (Homo sapiens, UniProt P27338); assay: Inhibition of recombinant human MAO-B expressed in Sf9 cells preincubated for 15 min followed by addition of benzylamine and measured after 60 min by Luminex assay
T1 sequence (P27338 whole entry): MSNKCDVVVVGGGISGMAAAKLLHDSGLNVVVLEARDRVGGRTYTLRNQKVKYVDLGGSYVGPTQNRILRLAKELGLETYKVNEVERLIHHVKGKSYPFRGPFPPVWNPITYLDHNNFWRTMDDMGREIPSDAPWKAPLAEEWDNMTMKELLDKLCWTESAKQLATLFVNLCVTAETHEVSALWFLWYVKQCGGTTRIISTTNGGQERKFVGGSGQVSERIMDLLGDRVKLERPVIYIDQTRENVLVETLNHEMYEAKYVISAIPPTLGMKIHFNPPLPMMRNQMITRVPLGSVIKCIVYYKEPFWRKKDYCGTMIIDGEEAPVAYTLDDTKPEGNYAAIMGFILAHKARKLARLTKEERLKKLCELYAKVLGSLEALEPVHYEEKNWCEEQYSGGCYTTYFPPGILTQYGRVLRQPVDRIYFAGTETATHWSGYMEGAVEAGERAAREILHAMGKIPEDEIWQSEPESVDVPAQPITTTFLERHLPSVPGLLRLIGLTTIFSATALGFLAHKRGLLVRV

[2] = species on record: Homo sapiens; assay: Selectivity index, ratio of IC50 for recombinant human MAO-A expressed in Sf9 cells to IC50 for recombinant human MAO-B expressed in Sf9 cells
[3] = target: T2, Amine oxidase [flavin-containing] A (Homo sapiens, UniProt P21397); assay: Inhibition of recombinant human MAO-A expressed in Sf9 cells preincubated for 15 min followed by addition of p-tyramine and measured after 60 min by Luminex assay
T2 sequence (P21397 whole entry): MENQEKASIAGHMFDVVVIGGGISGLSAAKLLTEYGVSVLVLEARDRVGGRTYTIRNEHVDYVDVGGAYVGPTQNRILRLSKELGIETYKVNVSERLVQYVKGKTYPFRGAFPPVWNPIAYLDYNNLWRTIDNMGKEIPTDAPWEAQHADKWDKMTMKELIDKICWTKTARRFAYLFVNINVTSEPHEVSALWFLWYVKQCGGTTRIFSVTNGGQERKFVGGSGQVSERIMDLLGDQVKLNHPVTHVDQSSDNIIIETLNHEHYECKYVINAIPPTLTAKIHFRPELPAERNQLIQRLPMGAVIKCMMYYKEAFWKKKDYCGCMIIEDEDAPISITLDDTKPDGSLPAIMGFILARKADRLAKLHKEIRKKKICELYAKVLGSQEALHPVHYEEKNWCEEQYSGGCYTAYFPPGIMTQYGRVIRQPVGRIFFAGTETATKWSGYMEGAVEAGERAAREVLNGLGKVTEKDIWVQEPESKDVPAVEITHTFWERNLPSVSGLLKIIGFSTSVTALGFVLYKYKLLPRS

[4] = Cmax in Sprague dawley rat at 5 mg/kg, po measured upto 24 hrs; format: ADME, organism-based; design: route oral, dose 5 mg/kg, time <=24; conditions: in vivo
[5] = AUC (0-t) in Sprague dawley rat at 1 mg/kg, iv measured upto 24 hrs; format: ADME, organism-based; design: route intravenous, dose 1 mg/kg, time <=24; conditions: in vivo
[6] = AUC (0-t) in Sprague dawley rat at 5 mg/kg, po measured upto 24 hrs; format: ADME, organism-based; design: route oral, dose 5 mg/kg, time <=24; conditions: in vivo
[7] = Clearance in Sprague dawley rat at 1 mg/kg, iv measured upto 24 hrs; format: ADME, organism-based; conditions: in vivo
[8] = Volume of distribution at steady state in Sprague dawley rat at 1 mg/kg, iv measured upto 24 hrs; format: ADME, organism-based; conditions: in vivo, read-out: Vdss
[9] = Half life in Sprague dawley rat at 1 mg/kg, iv measured upto 24 hrs; format: ADME, organism-based; conditions: in vivo
[10] = Half life in Sprague dawley rat at 5 mg/kg, po measured upto 24 hrs; format: ADME, organism-based; conditions: in vivo
[11] = Cmax in Sprague dawley rat at 1 mg/kg, iv measured upto 24 hrs; format: ADME, organism-based; design: route intravenous, dose 1 mg/kg, time <=24; conditions: in vivo
[12] = Oral bioavailability in Sprague dawley rat at 5 mg/kg measured upto 24 hrs; format: ADME, organism-based; conditions: in vivo
[13] = Half life in Cynomolgus monkey rat at 5 mg/kg, po measured upto 24 hrs; format: ADME, organism-based, Macaca fascicularis; conditions: in vivo
[14] = AUC (0-t) in Cynomolgus monkey at 1 mg/kg, iv measured upto 24 hrs; format: ADME, organism-based, Macaca fascicularis; design: route intravenous, dose 1 mg/kg, time <=24; conditions: in vivo, 24 h
[15] = Toxicity in MPTP-induced C57BL/6 mouse model of Parkinson's disease assessed as effect on locomotor activity by measuring rearing activity at 10 mg/kg, ip pretreated for 15 mins followed by MPTP challenge and measured after 5 days post MPTP challenge; format: organism-based; conditions: in vivo, 120 h, time 5 day
[16] = Cmax in Cynomolgus monkey at 1 mg/kg, iv measured upto 24 hrs; format: ADME, organism-based, Macaca fascicularis; design: route intravenous, dose 1 mg/kg, time <=24; conditions: in vivo
[17] = Cmax in Cynomolgus monkey rat at 5 mg/kg, po measured upto 24 hrs; format: ADME, organism-based, Macaca fascicularis; design: route oral, dose 5 mg/kg, time <=24; conditions: in vivo
[18] = Volume of distribution at steady state in Cynomolgus monkey at 1 mg/kg, iv measured upto 24 hrs; format: ADME, organism-based, Macaca fascicularis; conditions: in vivo, read-out: Vdss
[19] = Half life in Cynomolgus monkey at 1 mg/kg, iv measured upto 24 hrs; format: ADME, organism-based, Macaca fascicularis; conditions: in vivo
[20] = AUC (0-t) in Cynomolgus monkey rat at 5 mg/kg, po measured upto 24 hrs; format: ADME, organism-based, Macaca fascicularis; design: route oral, dose 5 mg/kg, time <=24; conditions: in vivo
[21] = Oral bioavailability in Cynomolgus monkey rat at 5 mg/kg measured upto 24 hrs; format: ADME, organism-based, Macaca fascicularis; conditions: in vivo

Work on `NC(=O)[C@@H]1C[C@@H](F)CN1Cc1ccc(OCc2cccc(F)c2)cc1F` yielded an IC50 [1] of 2.19 µM, a Ratio IC50 [2] of 13 and an IC50 [3] of 28.2 µM.

Compound `NC(=O)[C@@H]1C[C@H](F)CN1Cc1ccc(OCc2cccc(F)c2)cc1Cl` has an IC50 [1] of 0.14 µM, a Ratio IC50 [2] of 37 and an IC50 [3] of 5.18 µM.

In the case of `Cc1cc(OCc2cccc(F)c2)ccc1CN1C[C@@H](F)C[C@H]1C(N)=O`, the IC50 [1] is reported as 0.82 µM, the Ratio IC50 [2] is reported as 25 and the IC50 [3] is reported as 20.5 µM.

In the case of `NC(=O)[C@@H]1C[C@H](O)CN1Cc1ccc(OCc2cccc(F)c2)cc1`, the IC50 [1] is reported as 0.431 µM, the Ratio IC50 [2] is reported as 196 and the IC50 [3] is reported as 84.5 µM.

`NC(=O)[C@@H]1C[C@H](F)CN1Cc1ccc(OCc2cccc(F)c2)cc1F` showed a Ratio IC50 [2] of 979 and an IC50 [3] of 29.4 µM.

For `C[C@H]1C[C@@H](C(N)=O)N(Cc2ccc(OCc3cccc(F)c3)cc2)C1`, the Cmax [4] was 69.1 ng/mL, the AUC(0-t) at 24 h [5] was 209 ng·h/mL and the IC50 [1] was 0.082 µM. For the same compound, the Ratio IC50 [2] was 335, the IC50 [3] was 27.5 µM and the AUC(0-t) at 24 h [6] was 176 ng·h/mL. For the same compound, the clearance [7] was 79.1 mL/min/kg, the Vd [8] was 4.56 L/kg and the half-life [9] was 0.73 h. It also gave a half-life [10] of 0.96 h, a Cmax [11] of 174 ng/mL and a bioavailability [12] of 16.9%.

With `NC(=O)[C@@H]1C[C@@H](F)CN1Cc1ccc(OCc2cccc(F)c2)cc1Cl` the IC50 [1] was greater than 10 µM.

For `C[C@@H]1C[C@@H](C(N)=O)N(Cc2ccc(OCc3cccc(F)c3)cc2)C1`, the IC50 [1] was 2.18 µM, the Ratio IC50 [2] was 19 and the IC50 [3] was 42.2 µM.

Compound `NC(=O)[C@@H]1C[C@@H](O)CN1Cc1ccc(OCc2cccc(F)c2)cc1` has an IC50 [1] greater than 10 µM.

With `NC(=O)[C@@H]1C[C@@H](F)CN1Cc1ccc(OCc2cccc(F)c2)cc1` the IC50 [1] was 0.772 µM, the Ratio IC50 [2] was 31 and the IC50 [3] was 24 µM.

With `C[C@H](NCc1ccc(OCc2cccc(F)c2)cc1)C(N)=O` [SAFINAMIDE] the Cmax [4] was 423 ng/mL, the AUC(0-t) at 24 h [5] was 253 ng·h/mL and the half-life [13] was 4.6 h. For the same compound, the AUCt [14] was 2120 ng·h/mL, the Activity [15] was “Non-Toxic” and the Cmax [16] was 1080 ng/mL. The Cmax [17] was 1970 ng/mL, the AUC(0-t) at 24 h [6] was 795 ng·h/mL and the clearance [7] was 65.5 mL/min/kg. The Vd [8] was 4.21 L/kg, the Vd [18] was 7.15 L/kg and the half-life [9] was 1.03 h. It also gave a half-life [19] of 2.74 h, a half-life [10] of 1.02 h and an AUC(0-t) at 24 h [20] of 13100 ng·h/mL. The bioavailability [21] was 111%, the Cmax [11] was 282 ng/mL and the bioavailability [12] was 63.2%.

`NC(=O)[C@@H]1CCCN1Cc1ccc(OCc2cccc(F)c2)cc1` showed a Cmax [4] of 163 ng/mL, an AUC(0-t) at 24 h [5] of 347 ng·h/mL and a Ratio IC50 [2] of 168. It also gave an AUC(0-t) at 24 h [6] of 284 ng·h/mL, a clearance [7] of 47.1 mL/min/kg and a Vd [8] of 1.11 L/kg. It also gave a half-life [9] of 0.37 h, a half-life [10] of 1.27 h and a Cmax [11] of 809 ng/mL. For the same compound, the bioavailability [12] was 16.3%.

Work on `Cc1cc(OCc2cccc(F)c2)ccc1CN1C[C@H](F)C[C@H]1C(N)=O` yielded an IC50 [1] greater than 10 µM.

Work on `NC(=O)[C@H]1C[C@H](F)CN1Cc1ccc(OCc2cccc(F)c2)cc1` yielded an IC50 [1] of 0.709 µM, a Ratio IC50 [2] of 10 and an IC50 [3] of 6.74 µM.

In the case of `NC(=O)[C@H]1C[C@@H](F)CN1Cc1ccc(OCc2cccc(F)c2)cc1`, the IC50 [1] is reported as greater than 10 µM.
